# Experimental data taken from ChEMBL document CHEMBL3885861, “Open TG-GATES”.
# Species: Rattus norvegicus
# Test: Open TG-GATES - Regimen: Single
# Format: toxicity, organism-based, Sprague-Dawley
# Parameters: regimen Single, gender Male, age 6 weeks
# Details: in vivo, po, 1000 mg/kg, route gavage, dose level Middle; for APTT / Bas / Eos / Fbg / Hb / Ht / Lym / MCH / MCHC / MCV / Mono / Neu / PT / Plat / RBC / Ret / WBC: tissue Blood; for KIDNEY_L / KIDNEY_R / KIDNEY_TOTAL: tissue Kidney; for LIVER: tissue Liver; for A/G / ALP / ALT / AST / BUN / CRE / Ca / Cl / DBIL / GLC / IP / K / LDH / Na / PL / RALB / TBIL / TC / TG / TP / gamma-GTP: tissue Plasma
compound,measurement,setting,value
CCOc1ccc(NC(=O)CC(C)O)cc1 (configuration not stated) [BUCETIN],TERMINAL_BW,3 h,211.2 g
same,APTT,3 h,14.7 s
same,Bas,3 h,0%
same,Eos,3 h,1%
same,Fbg,3 h,303 mg/dL
same,Hb,3 h,13 g/dL
same,Ht,3 h,38.6%
same,Lym,3 h,78.4%
same,MCH,3 h,20.6 pg
same,MCHC,3 h,33.7%
same,MCV,3 h,61.2 fL
same,Mono,3 h,2%
same,Neu,3 h,18.2%
same,PT,3 h,13.5 s
same,Plat,3 h,123 x10_4/uL
same,RBC,3 h,630.8 x10_4/ul
same,Ret,3 h,7.9%
same,WBC,3 h,70.9 x10_2/uL
same,KIDNEY_L,3 h,0.9 g
same,KIDNEY_R,3 h,1 g
same,KIDNEY_TOTAL,3 h,1.9 g
same,LIVER,3 h,9.1 g
same,A/G,3 h,0.9
same,ALP,3 h,1363.2 IU/L
same,ALT,3 h,33 IU/L
same,AST,3 h,65.6 IU/L
same,BUN,3 h,8.4 mg/dL
same,CRE,3 h,0.1 mg/dL
same,Ca,3 h,10.5 mg/dL
same,Cl,3 h,104.6 meq/L
same,DBIL,3 h,0.03 mg/dL
same,GLC,3 h,182.2 mg/dL
same,IP,3 h,9.1 mg/dL
same,K,3 h,4.2 meq/L
same,LDH,3 h,66.6 IU/L
same,Na,3 h,141.4 meq/L
same,PL,3 h,137.4 mg/dL
same,RALB,3 h,2.5 g/dL
same,TBIL,3 h,0.05 mg/dL
same,TC,3 h,73.6 mg/dL
same,TG,3 h,51.6 mg/dL
same,TP,3 h,5.2 g/dL
same,gamma-GTP,3 h,1.4 IU/L
same,TERMINAL_BW,6 h,208.9 g
same,APTT,6 h,19.8 s
same,Bas,6 h,0%
same,Eos,6 h,1%
same,Fbg,6 h,317 mg/dL
same,Hb,6 h,13.3 g/dL
same,Ht,6 h,39.5%
same,Lym,6 h,77%
same,MCH,6 h,20.9 pg
same,MCHC,6 h,33.6%
same,MCV,6 h,62.1 fL
same,Mono,6 h,2.6%
same,Neu,6 h,19%
same,PT,6 h,13.7 s
same,Plat,6 h,118.7 x10_4/uL
same,RBC,6 h,636.6 x10_4/ul
same,Ret,6 h,7.8%
same,WBC,6 h,61.8 x10_2/uL
same,KIDNEY_L,6 h,0.9 g
same,KIDNEY_R,6 h,0.9 g
same,KIDNEY_TOTAL,6 h,1.8 g
same,LIVER,6 h,8.3 g
same,A/G,6 h,0.9
same,ALP,6 h,1231.6 IU/L
same,ALT,6 h,29 IU/L
same,AST,6 h,64.4 IU/L
same,BUN,6 h,8.6 mg/dL
same,CRE,6 h,0.2 mg/dL
same,Ca,6 h,10.7 mg/dL
same,Cl,6 h,105.4 meq/L
same,DBIL,6 h,0.036 mg/dL
same,GLC,6 h,186.8 mg/dL
same,IP,6 h,10.3 mg/dL
same,K,6 h,4.2 meq/L
same,LDH,6 h,57.8 IU/L
same,Na,6 h,142 meq/L
same,PL,6 h,139 mg/dL
same,RALB,6 h,2.6 g/dL
same,TBIL,6 h,0.062 mg/dL
same,TC,6 h,82.2 mg/dL
same,TG,6 h,28.4 mg/dL
same,TP,6 h,5.5 g/dL
same,gamma-GTP,6 h,1 IU/L
same,TERMINAL_BW,9 h,204.6 g
same,APTT,9 h,16.1 s
same,Bas,9 h,0%
same,Eos,9 h,0.6%
same,Fbg,9 h,311.6 mg/dL
same,Hb,9 h,13.6 g/dL
same,Ht,9 h,40.3%
same,Lym,9 h,78.8%
same,MCH,9 h,21.1 pg
same,MCHC,9 h,33.8%
same,MCV,9 h,62.4 fL
same,Mono,9 h,2.2%
same,Neu,9 h,17.8%
same,PT,9 h,14.2 s
same,Plat,9 h,125.3 x10_4/uL
same,RBC,9 h,646.4 x10_4/ul
same,Ret,9 h,8.3%
same,WBC,9 h,48.8 x10_2/uL
same,KIDNEY_L,9 h,0.9 g
same,KIDNEY_R,9 h,0.9 g
same,KIDNEY_TOTAL,9 h,1.8 g
same,LIVER,9 h,8.2 g
same,A/G,9 h,0.9
same,ALP,9 h,1308.4 IU/L
same,ALT,9 h,29.6 IU/L
same,AST,9 h,62.6 IU/L
same,BUN,9 h,7.6 mg/dL
same,CRE,9 h,0.1 mg/dL
same,Ca,9 h,10.6 mg/dL
same,Cl,9 h,106 meq/L
same,DBIL,9 h,0.04 mg/dL
same,GLC,9 h,196.6 mg/dL
same,IP,9 h,9.8 mg/dL
same,K,9 h,4 meq/L
same,LDH,9 h,56.2 IU/L
same,Na,9 h,142.4 meq/L
same,PL,9 h,130.6 mg/dL
same,RALB,9 h,2.6 g/dL
same,TBIL,9 h,0.054 mg/dL
same,TC,9 h,71.6 mg/dL
same,TG,9 h,26.2 mg/dL
same,TP,9 h,5.5 g/dL
same,gamma-GTP,9 h,1 IU/L
same,TERMINAL_BW,24 h,208.1 g
same,APTT,24 h,23.5 s
same,Bas,24 h,0%
same,Eos,24 h,1%
same,Fbg,24 h,268.6 mg/dL
same,Hb,24 h,13.4 g/dL
same,Ht,24 h,40.5%
same,Lym,24 h,77.6%
same,MCH,24 h,20.7 pg
same,MCHC,24 h,33.2%
same,MCV,24 h,62.3 fL
same,Mono,24 h,3%
same,Neu,24 h,18%
same,PT,24 h,15.1 s
same,Plat,24 h,125 x10_4/uL
same,RBC,24 h,650.2 x10_4/ul
same,Ret,24 h,7.5%
same,WBC,24 h,77.3 x10_2/uL
same,KIDNEY_L,24 h,1 g
same,KIDNEY_R,24 h,1 g
same,KIDNEY_TOTAL,24 h,1.9 g
same,LIVER,24 h,8.9 g
same,A/G,24 h,0.9
same,ALP,24 h,1549 IU/L
same,ALT,24 h,48 IU/L
same,AST,24 h,92.2 IU/L
same,BUN,24 h,16 mg/dL
same,CRE,24 h,0.2 mg/dL
same,Ca,24 h,10.8 mg/dL
same,Cl,24 h,106.8 meq/L
same,DBIL,24 h,0.03 mg/dL
same,GLC,24 h,169.6 mg/dL
same,IP,24 h,8.1 mg/dL
same,K,24 h,4.2 meq/L
same,LDH,24 h,93.8 IU/L
same,Na,24 h,144.2 meq/L
same,PL,24 h,154 mg/dL
same,RALB,24 h,2.6 g/dL
same,TBIL,24 h,0.07 mg/dL
same,TC,24 h,86.4 mg/dL
same,TG,24 h,66.2 mg/dL
same,TP,24 h,5.6 g/dL
same,gamma-GTP,24 h,1 IU/L
